# Laboratory results from patent US9011882B2, “Dimethylarginine dimethylaminohydrolase inhibitors and methods of use thereof” (The Board of Trustees of the Leland Stanford Junior …, priority 2012, dated 2015).
# pIC50: −log10 of the molar value.
# Tests used:
# [1] = test system: mouse alveolar epithelial cell; assay: BrdU Cell Proliferation Assay, mouse alveolar epithelial cells; assay type: cell-based; conditions: mouse cell line, FIG. 25
# Source text: A “vehicle only” sample served as a “no DDAH” control.
# [2] = test system: Human lung epithelial cell line (A-549); assay: BrdU Cell Proliferation Assay, human alveolar epithelial cells; assay type: cell-based; conditions: FIG. 24
# Protocol: (§1) Cells were seeded at 5×10^3 cells/well in a 96-well plate (200 μL media per well) & incubated overnight at 37° C./5% CO2. The next day, the conditioned media was aspirated and the cells were PBS-rinsed prior to (fetal bovine) serum starving them for 2 hours followed by 22 hours low serum (0.1% FBS) in order to synchronize them.
# On day-3, 2 hours before the end of the 24 hours low serum period, DDAH inhibitors (Proton pump inhibitors; PPIs) were added in a 100 μL solution of 0.1% FBS DMEM. The following DDAH inhibitors were used: Lansoprazole; Esomeprazole; and Rabeprazole. A “vehicle only” sample served as a “no DDAH” control. In addition, Media only (blank control) without cells, and Cells only (background control) were included in the assay. Two hours later, 100 μL of DMEM containing 10% FBS was added to each well in order to serum-stimulate (for 24 hours) the cells and make the total well content to 200 μL. Four hours prior to the end of the 24 hrs, 20 μL of 1:500 diluted Bromodeoxyuridine (BrdU) (diluted in fully-supplemented DMEM) was added to all wells except the “Cells only” control wells.
# The incorporation of BrdU into newly synthesized DNA by actively proliferating cells was detected immunochemically using an Antibody directed against BrdU using the recommended protocol and the BrdU Cell Proliferation Assay kit (Millipore; Cat #2750). […]
# [3] = test system: Lung fibroblasts from patients with IPF; assay: Sircol collagen assay, TGF-β stimulated IPF lung fibroblasts; assay type: cell-based, human; conditions: Omeprazole 50 or 100 μM; L-257 50 μM; A83-01 20 μM; 24 hours
# Protocol: as §1, with “4×10^4” for “5×10^3”, “6-well” for “96-well”, “(1.2 mL” for “(200 μL”, “and” for “&”, “rinsed with phosphate-buffered saline (PBS)” for “PBS-rinsed”, “(0.1% fetal bovine serum;” for “(0.1%”
# On day-3, the cells were stimulated with fully-supplemented media (containing 10% FBS) in the absence or presence of recombinant transforming growth factor-1 (TGF-β1) (at 10 ng/mL final conc) in the presence of a DDAH inhibitor (DDAHi; the proton pump inhibitor (PPI) lansoprazole at a final concentration of 20 μM) or vehicle for 24 hours.
# The acid-soluble collagen content in each well was determined in the conditioned media using the Sircol collagen assay (Accurate Chemical and Scientific Corp; CLRS 1000) following the recommended protocol.
# The amount of collagen in each well was estimated from a standard curve and the collagen content in each sample was normalized to total cellular protein from the respective well and was expressed as μg collagen per milligram of protein.
# Lung fibroblasts were isolated from patients diagnosed with IPF according to International Standards. Isolated fibroblasts were seeded at 6×10^4 and synchronized the following day.
# The acid-soluble collagen content was determined using the Sircol collagen assay (Accurate Chemical and Scientific Corp; CLRS 1000) following the recommended protocol.
# [4] = test system: human microvascular endothelial cells (HMEC-1); assay: Intracellular ADMA by ELISA in endothelial cells; assay type: cell-based; conditions: 20 μM, 24 hours, compared to vehicle control
# Protocol: (§2) First, human microvascular endothelial cells (HMEC-1; ATCC) were seeded in 75 cm^2 cell culture flasks and cultured in fully supplemented DMEM (Invitrogen cat #11995; supplemented with 10% fetal bovine serum (FBS), 4 mM HEPES; GIBCO 15630 and penicillin/streptomycin). The cells were incubated at 37° C./5% CO2 until ˜60% confluency. The cells were then washed with phosphate buffered saline (PBS) and plain DMEM (DMEM with no addition of serum or the other supplements) was mixed with esomeprazole (20 μM final concentration from 100 mM stock) and added to the cells. […] After ˜4 hrs of incubation, the media was aspirated from each flask and the cells were cultured in fully supplemented DMEM as described above and incubated at 37° C./5% CO2 for another 20 hrs. The serum was initially withdrawn due to the possibility that esomeprazole would interact with Cys containing serum proteins and fail to internalize at effective concentrations.
# After 24 hrs, the cells were harvested. Total cellular protein was estimated as described and ADMA was measured by enzyme-linked immunosorbent assay (ELISA) following the manufacturer's recommendations; DLD Diagnostika, Hamburg, Germany).
# as §2, with “FBS,” for “fetal bovine serum (FBS),”, “PBS” for “phosphate buffered saline (PBS)”, “PD 404” for “esomeprazole”, “conc” for “concentration”, “The serum was initially withdrawn due to the possibility that esomeprazole would interact with Cys containing serum proteins and fail to internalize at effective concentrations.” left out
# After 24 hours, the cells were harvested. Total cellular protein was estimated as described and ADMA was measured by ELISA following the manufacturer's recommendations; DLD Diagnostika, Hamburg, Germany).
# human DDAH1 [5] = target: T1, human DDAH1 (Homo sapiens (Human), UniProt O94760); assay: Fluorimetric CPM assay of DDAH activity (SMTC substrate); assay type: biochemical; conditions: for inhibition of DDAH activity, CPM fluorometric validation: fresh powders from vendors, vs vehicle
# Protocol: (§3) The activity of human DDAH1 was quantified using fluorimetric assay by incubating the enzyme with an artificial substrate S-methyl-thiocitrulline (SMTC). DDAH metabolizes SMTC into L-citrulline and methanethiol (CH3—SH). The thiol released from the reaction can be monitored fluorimetrically by adding 7-Diethylamino-3-(4-maleimidophenyl)-4-methylcoumarin (CPM).
# as §3, with “(SMTC), as described in Example 1.” for “(SMTC).”
# For the secondary assay, a fluorimetric assay that uses SMTC as a substrate was adapted. DDAH metabolizes SMTC into L-citrulline and methanethiol (CH3—SH). In brief, DDAH (30 nM final concentration) was mixed with SMTC (100 μM final concentration), CPM (50 μM final concentration) and screening buffer (containing a final concentration of 0.01% Triton-X100 and 1 mM EDTA). The reaction mix was added to black 384-well plates to validate primary hits that modulate DDAH activity. The release of CH3—SH was monitored fluorimetrically by adding 7-Diethylamino-3-(4-maleimidophenyl)-4-methylcoumarin (CPM) as described in Linsky (Linsky, T. & Fast, W. A continuous, fluorescent, high-throughput assay for human dimethylarginine dimethylaminohydrolase-1. J Biomol Screen 16, 1089-1097 (2011)).
# [6] = test system: human alveolar epithelial cells (A-549); assay: Apoptosis, Cell Death Detection ELISA, A23187-induced; assay type: cell-based; conditions: 1 μM A23187, 24 hours
# Protocol: Apoptosis as measured by mono- and oligo-nucleosome enrichment was determined using Cell Death Detection ELISA^PLUS (Roche). Histone-DNA complex (His-DNA CPx) was included as a control. […] Data shown are Mean+/-SEM from Duplicate Experiments. * p<0.05.
# [7] = test system: human alveolar epithelial cells (A-549)
# Source text: (§4) Cytotoxicity of PPIs. […] Mean+/−SEM from Duplicate Experiments. * p<0.05.
# [8] = test system: mouse alveolar epithelial (MLE-12) cells
# Source text: as §4
# DDAH = DDAH (Homo sapiens (Human), UniProt O94760); assay: Dilution assay for reversibility of DDAH inhibition (fluorometric); assay type: biochemical
# Protocol: In order to understand the mechanism by which PPIs inhibit DDAH activity and to determine whether the inhibition mechanism is reversible, a dilution study was conducted, in which DDAH (at a 100-fold excess to the final concentration used) was pre-incubated with excess PPI (100×, 10× or 1× the IC50 value) and then inhibition of enzymatic activity was determined using a fluorometric assay as described above. For a reversible inhibitor that binds to a single site of an enzyme (1:1 stoichiometry), it is anticipated that inhibition can be saturated.
# [9] = test system: human lung epithelial cells (A-549); assay: Intracellular ADMA by ELISA in lung epithelial cells; assay type: cell-based; conditions: Omeprazole at 10, 20, 50 or 100 μM, 24 hours
# Protocol: After 24 hours, ADMA was measured by enzyme-linked immunosorbent assay (ELISA). […] Data are Mean±SEM from duplicate experiments. *p<0.05 compared to vehicle (“Veh”).
# [10] = test system: human alveolar epithelial cells (A-549); assay: Nitric oxide production, total nitrite (NOx) by Griess reaction; assay type: cell-based; conditions: 24 hours
# Protocol: Total nitrite (NOx) was measured using Griess reaction. Data are Mean±SEM from duplicate experiments. *p<0.05.
# human DDAH1 [11] = target: T1, human DDAH1; assay: Time-dependence kinetics study of DDAH inhibition; assay type: biochemical
# T1 sequence (O94760 whole entry): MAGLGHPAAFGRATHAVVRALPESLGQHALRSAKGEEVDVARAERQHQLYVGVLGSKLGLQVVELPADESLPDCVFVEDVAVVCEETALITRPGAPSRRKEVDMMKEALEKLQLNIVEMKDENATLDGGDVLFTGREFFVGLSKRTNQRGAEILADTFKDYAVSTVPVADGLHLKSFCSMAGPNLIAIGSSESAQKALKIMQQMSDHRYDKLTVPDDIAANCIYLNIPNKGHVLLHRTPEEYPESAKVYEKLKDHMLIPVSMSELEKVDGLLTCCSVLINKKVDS
# Chain of DDAH (O94760 whole entry): as above
Structure (SMILES),incorporation of BrdU [1],incorporation of BrdU [2],TGF-β induced collagen synthesis [3],"inhibition of DDAH activity, CPM fluorometric validation (human DDAH1 [5])",mode of inhibition in time-dependence kinetics (human DDAH1 [11]),further results
COCCNC(N)=NCCC[C@H](N)C(=O)O [L-257],reduced incorporation of BrdU,reduced incorporation of BrdU,reduced TGF-β induced collagen synthesis,–,–,increase in intracellular ADMA [4]: 68%
COc1ccc2[nH]c([S+]([O-])Cc3ncc(C)c(OC)c3C)nc2c1 (centres unmarked) [Omeprazole],reduced incorporation of BrdU,reduced incorporation of BrdU,reduced TGF-β induced collagen synthesis,inhibited DDAH activity significantly,–,"level of apoptosis (mono- and oligo-nucleosome enrichment) [6]: reduced the level of apoptosis; concentration up to which not cytotoxic (LDH release) [7]: ≥ 300 µM; concentration up to which cytotoxicity not observed (LDH release) [8]: ≥ 300 µM; reversibility of DDAH inhibition upon dilution (DDAH; pre-incubation with 100×, 10× or 1× the IC50 value): reversible inhibition of DDAH; pIC50 (DDAH; value given in FIG. 20 legend): ~4.22; intracellular ADMA [9]: increase in intracellular ADMA; levels of nitric oxide (total nitrite, NOx) [10]: reduced the levels of nitric oxide"
"O=C(O)c1cc[c]([Hg][Cl])cc1 [chloromercuribenzoate, 4-chloromercuribenzoic acid, reference compound]",–,–,–,confirmed known DDAH inhibitors,progressive inhibition,–
Cc1cccc(-c2nn(C(=S)Nc3ccccc3)cc2-c2ccnc3ccccc23)n1 [A83-01],–,–,reduced TGF-β induced collagen synthesis,–,–,–
CC(=O)[O-].[Hg+][c]1ccccc1 [phenylmercuric acetate],–,–,–,–,progressive inhibition,pIC50 (human DDAH1 [5]): > 6.11
